Assay [1] concerns the target T1, BRM (Homo sapiens, UniProt P51531).
T1 construct: made in house; host or cells: High Five insect cells
In words: ATPase catalytic activity of BRM, ADP-Glo in vitro biochemical assay. As to conditions: for IC50: ADP-Glo ATPase assay, 30 nM BRM, 400 μM ATP; for Ratio* (BRG1 IC50 (μM) divided by BRM IC50 (μM)): selectivity ratio BRG1 IC50 / BRM IC50. Put shortly: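 ADP-Glo luminescence, after depletion of leftover ATP and conversion of ADP, reported the activity. The 1 h room-temperature reaction held 400 μM ATP, 20 nM salmon sperm DNA and 30 nM BRM in 20 mM Tris pH 8, 20 mM MgCl2, 50 mM NaCl, 0.1% Tween-20, 1 mM DTT.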
On the technique in general: ADP-Glo turns the ADP formed in a reaction into a luminescent signal.

In assay [2] the target is T2, BRG-1 (Homo sapiens, UniProt P51532).
T2 construct: made in house; host or cells: High Five insect cells
In words: ATPase catalytic activity of BRG-1, ADP-Glo in vitro biochemical assay. The settings on record: ADP-Glo ATPase assay, 30 nM BRG-1, 400 μM ATP; read-out: BRG1 IC50. The gist of the method: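 Luminescence read-out: ADP formed by BRG-1 ATPase is converted to ATP and detected by luciferase. Residual ATP is first removed with ADP-Glo Reagent for 40 min at RT; detection reagent is then incubated 60 min at RT before reading.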

This note sets out measurements from US20230416248A1, “COMPOUNDS AND USES THEREOF” (Foghorn Therapeutics Inc., priority 2020, published 2023).

T1 sequence (P51531 whole entry): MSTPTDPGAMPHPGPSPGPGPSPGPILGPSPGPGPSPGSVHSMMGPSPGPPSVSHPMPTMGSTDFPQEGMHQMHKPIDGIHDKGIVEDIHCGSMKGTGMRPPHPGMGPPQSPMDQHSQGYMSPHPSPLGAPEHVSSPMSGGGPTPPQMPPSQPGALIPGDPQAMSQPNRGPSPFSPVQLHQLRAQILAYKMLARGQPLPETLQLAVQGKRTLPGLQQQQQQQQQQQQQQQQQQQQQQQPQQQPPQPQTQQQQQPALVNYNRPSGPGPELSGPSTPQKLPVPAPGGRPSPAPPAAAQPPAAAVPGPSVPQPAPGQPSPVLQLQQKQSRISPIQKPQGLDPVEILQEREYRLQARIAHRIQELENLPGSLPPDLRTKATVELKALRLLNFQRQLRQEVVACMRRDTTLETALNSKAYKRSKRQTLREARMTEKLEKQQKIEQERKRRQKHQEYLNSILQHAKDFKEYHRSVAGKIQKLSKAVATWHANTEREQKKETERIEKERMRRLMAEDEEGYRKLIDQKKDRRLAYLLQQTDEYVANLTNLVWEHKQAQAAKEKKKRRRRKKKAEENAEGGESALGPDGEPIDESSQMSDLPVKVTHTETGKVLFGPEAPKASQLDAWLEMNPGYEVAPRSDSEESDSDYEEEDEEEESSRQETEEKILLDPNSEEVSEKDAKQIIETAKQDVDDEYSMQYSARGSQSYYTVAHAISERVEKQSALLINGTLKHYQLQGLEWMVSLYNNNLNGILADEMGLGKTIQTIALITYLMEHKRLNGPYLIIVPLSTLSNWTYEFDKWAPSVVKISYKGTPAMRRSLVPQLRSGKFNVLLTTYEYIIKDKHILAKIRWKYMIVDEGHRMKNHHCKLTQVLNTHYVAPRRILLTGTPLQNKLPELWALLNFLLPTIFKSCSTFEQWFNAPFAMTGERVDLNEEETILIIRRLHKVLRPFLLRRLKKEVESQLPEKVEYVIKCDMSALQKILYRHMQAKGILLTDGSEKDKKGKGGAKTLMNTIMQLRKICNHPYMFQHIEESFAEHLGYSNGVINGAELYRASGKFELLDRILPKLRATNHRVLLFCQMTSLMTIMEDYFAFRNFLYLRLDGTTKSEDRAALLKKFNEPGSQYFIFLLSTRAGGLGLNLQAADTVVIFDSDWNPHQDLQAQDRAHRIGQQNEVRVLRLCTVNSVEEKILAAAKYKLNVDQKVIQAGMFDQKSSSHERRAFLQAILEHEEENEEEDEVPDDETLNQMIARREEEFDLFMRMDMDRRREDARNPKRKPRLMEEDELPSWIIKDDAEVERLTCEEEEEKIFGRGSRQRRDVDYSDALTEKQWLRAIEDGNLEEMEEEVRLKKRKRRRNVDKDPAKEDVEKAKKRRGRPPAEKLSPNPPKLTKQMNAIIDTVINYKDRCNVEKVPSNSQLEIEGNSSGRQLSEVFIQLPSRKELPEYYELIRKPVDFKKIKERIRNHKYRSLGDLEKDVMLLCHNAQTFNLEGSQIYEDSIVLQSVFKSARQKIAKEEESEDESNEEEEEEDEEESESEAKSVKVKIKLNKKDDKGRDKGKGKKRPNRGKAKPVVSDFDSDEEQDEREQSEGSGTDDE
T2 sequence (P51532 whole entry): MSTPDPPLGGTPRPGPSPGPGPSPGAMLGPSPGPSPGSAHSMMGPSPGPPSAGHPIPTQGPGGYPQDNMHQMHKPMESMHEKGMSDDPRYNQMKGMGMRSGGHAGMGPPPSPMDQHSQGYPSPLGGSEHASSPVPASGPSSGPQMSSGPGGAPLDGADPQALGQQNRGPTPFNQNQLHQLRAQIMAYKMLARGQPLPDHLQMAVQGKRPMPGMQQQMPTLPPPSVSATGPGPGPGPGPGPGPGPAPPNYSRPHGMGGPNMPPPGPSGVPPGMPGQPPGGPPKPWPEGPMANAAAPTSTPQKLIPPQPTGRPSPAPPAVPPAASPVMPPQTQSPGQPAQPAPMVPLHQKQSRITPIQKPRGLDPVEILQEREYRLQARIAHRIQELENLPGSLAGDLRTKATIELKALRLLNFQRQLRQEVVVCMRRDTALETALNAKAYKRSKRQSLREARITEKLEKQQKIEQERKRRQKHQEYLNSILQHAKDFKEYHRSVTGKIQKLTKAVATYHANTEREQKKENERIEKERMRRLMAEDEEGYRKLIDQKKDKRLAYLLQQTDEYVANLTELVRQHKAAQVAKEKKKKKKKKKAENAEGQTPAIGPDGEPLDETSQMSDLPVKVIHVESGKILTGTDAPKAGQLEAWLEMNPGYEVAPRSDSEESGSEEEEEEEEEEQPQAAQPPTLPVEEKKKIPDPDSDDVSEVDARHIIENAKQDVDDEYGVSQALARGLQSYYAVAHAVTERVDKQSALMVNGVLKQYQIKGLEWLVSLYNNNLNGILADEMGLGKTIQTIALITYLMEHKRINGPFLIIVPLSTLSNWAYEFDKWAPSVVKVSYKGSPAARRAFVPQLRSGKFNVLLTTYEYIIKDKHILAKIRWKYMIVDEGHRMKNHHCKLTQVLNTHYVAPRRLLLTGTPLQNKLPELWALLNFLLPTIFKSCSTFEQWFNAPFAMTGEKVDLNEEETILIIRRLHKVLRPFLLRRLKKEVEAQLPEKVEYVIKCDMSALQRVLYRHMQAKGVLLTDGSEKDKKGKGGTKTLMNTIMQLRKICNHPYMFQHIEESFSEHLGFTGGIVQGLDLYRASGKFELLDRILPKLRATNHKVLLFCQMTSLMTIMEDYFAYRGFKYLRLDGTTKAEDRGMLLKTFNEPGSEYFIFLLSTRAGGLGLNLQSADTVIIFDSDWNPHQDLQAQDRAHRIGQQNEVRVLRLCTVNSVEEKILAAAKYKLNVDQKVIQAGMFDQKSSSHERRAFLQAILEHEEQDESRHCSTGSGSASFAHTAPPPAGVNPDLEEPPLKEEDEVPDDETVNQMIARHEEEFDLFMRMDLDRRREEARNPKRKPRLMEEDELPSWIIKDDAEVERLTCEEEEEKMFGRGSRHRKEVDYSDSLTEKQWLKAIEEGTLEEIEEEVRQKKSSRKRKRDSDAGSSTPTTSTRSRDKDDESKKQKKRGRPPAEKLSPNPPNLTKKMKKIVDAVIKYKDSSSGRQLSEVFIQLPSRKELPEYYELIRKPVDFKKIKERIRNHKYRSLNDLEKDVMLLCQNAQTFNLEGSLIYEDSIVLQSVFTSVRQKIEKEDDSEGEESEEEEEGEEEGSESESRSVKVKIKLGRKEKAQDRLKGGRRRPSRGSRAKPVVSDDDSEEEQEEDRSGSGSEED

Regarding `O=C(NCc1cc2nc(-c3cccc(CC(F)F)n3)ccc2cn1)c1ccc2c(c1)S(=O)(=O)CCOC2` [Compound 205], the IC50 in assay [1] turned out to be 90.3 nM; in assay [2] it was 1480 nM. In assay [1], the “Ratio* (BRG1 IC50 (μM) divided by BRM IC50 (μM))” value stood at 16.45.
`C[C@@H]1CN(c2cccc(-c3ccc4cnc(CNC(=O)c5ccc(C(F)F)c(S(C)(=O)=O)c5)cc4n3)n2)C[C@H](C)O1` [Compound 206]: in assay [1], inhibition was half-maximal at 8 nM (IC50) and the “Ratio* (BRG1 IC50 (μM) divided by BRM IC50 (μM))” value is reported as 13.71. Besides, in assay [2], the IC50 is 110 nM.
For `COCCc1ccc(C(=O)NCc2cc3nc(-c4cncc(C5CC5)n4)ccc3cn2)cc1S(C)(=O)=O` [Compound 207], in assay [1], half-maximal inhibition (IC50) was put at 407 nM and the “Ratio* (BRG1 IC50 (μM) divided by BRM IC50 (μM))” value is given as 12.29. The IC50 in assay [2] worked out at 5000 nM.
The corresponding values for `O=C(NCc1cc2nc(-c3cccc(C4(C(F)F)CC4)n3)ccc2cn1)c1ccc2c(c1)S(=O)(=O)CCOC2` [Compound 208] are 42.7 nM, 8.84 and 377 nM.
The corresponding values for `O=C(NCc1cc2nc(-c3cncc(C(F)(F)F)n3)ccc2cn1)c1ccc2c(c1)S(=O)(=O)CCOC2` [Compound 209] are 498 nM, 7.27 and 3620 nM.
Turning to `CC1(c2cccc(-c3ccc4cnc(CNC(=O)c5ccc6c(c5)S(=O)(=O)CCOC6)cc4n3)n2)CC1` [Compound 210], in assay [1], the IC50 was 17.6 nM and the “Ratio* (BRG1 IC50 (μM) divided by BRM IC50 (μM))” value is reported as 9.92. Moreover, the IC50 in assay [2] was 174 nM.
Regarding `C[C@@H]1CN(c2cncc(-c3ccc4cnc(CNC(=O)c5ccc6c(c5)S(=O)(=O)CCOC6)cc4c3)n2)C[C@H](C)O1` [Compound 211], in assay [1], the IC50 turned out to be 7 nM and the “Ratio* (BRG1 IC50 (μM) divided by BRM IC50 (μM))” value came to 3.05. The IC50 in assay [2] was 21.3 nM.
The corresponding values for `Cc1cc(-c2ccc3cnc(CNC(=O)c4ccc5c(c4)S(=O)(=O)CCOC5)cc3n2)nc(N2C[C@@H](C)O[C@@H](C)C2)c1` [Compound 212] are 14.3 nM, 8.51 and 122 nM.
The corresponding values for `C[C@@H]1CN(c2cccc(-c3ccc4cnc(CNC(=O)c5ccc(Cl)c(S(C)(=O)=O)c5)cc4n3)n2)C[C@H](C)O1` [Compound 213] are 9.5 nM, 13.94 and 132 nM.
Consider `C[C@@]1(c2cccc(-c3ccc4cnc(CNC(=O)c5ccc6c(c5)S(=O)(=O)CCOC6)cc4n3)n2)CC1(F)F` [Compound 214], for which the IC50 turned out to be 331 nM in assay [1] and 3310 nM in assay [2]. The “Ratio* (BRG1 IC50 (μM) divided by BRM IC50 (μM))” value in assay [1] is 10.01.
Take `C[C@@H]1CN(c2cccc(-c3ccc4cnc(CNC(=O)c5ccc6c(c5)S(=O)(=O)CCOC6)cc4n3)n2)C[C@@H](C)O1` [Compound 215]: in assay [1], the IC50 worked out at 7 nM and the “Ratio* (BRG1 IC50 (μM) divided by BRM IC50 (μM))” value stood at 9.47. Further, the IC50 in assay [2] worked out at 66.2 nM.
For `C[C@H]1CN(c2cccc(-c3ccc4cnc(CNC(=O)c5ccc6c(c5)S(=O)(=O)CCOC6)cc4n3)n2)C[C@H](C)O1` [Compound 216], the IC50 was determined as 10.9 nM in assay [1] and 93.7 nM in assay [2]. Besides, in assay [1], the “Ratio* (BRG1 IC50 (μM) divided by BRM IC50 (μM))” value came to 8.63.
The corresponding values for `O=C(NCc1cc2nc(-c3ccnc([C@H]4CC4(F)F)n3)ccc2cn1)c1ccc2c(c1)S(=O)(=O)CCOC2` [Compound 217] are 61.2 nM, 965 nM and 15.77.
The like results for `O=C(NCc1cc2nc(-c3ccnc([C@@H]4CC4(F)F)n3)ccc2cn1)c1ccc2c(c1)S(=O)(=O)CCOC2` [Compound 218] were, in that order, 166 nM, 1620 nM and 9.79.
The corresponding values for `C[C@]1(c2cccc(-c3ccc4cnc(CNC(=O)c5ccc6c(c5)S(=O)(=O)CCOC6)cc4n3)n2)CC1(F)F` [Compound 219] are 136 nM, 1230 nM and 9.05.
With `O=C(NCc1cc2nc(-c3cccc(N4CCCC4)n3)ccc2cn1)c1ccc2c(c1)S(=O)(=O)CCOC2` [Compound 220], the IC50 was found to be 16 nM in assay [1] and 144 nM in assay [2]. For the same molecule, the “Ratio* (BRG1 IC50 (μM) divided by BRM IC50 (μM))” value in assay [1] is 9.02.
The like results for `COCC1CN(c2cccc(-c3ccc4cnc(CNC(=O)c5ccc6c(c5)S(=O)(=O)CCOC6)cc4n3)n2)C1` [Compound 221] were, in that order, 82.3 nM, 794 nM and 9.65.
The like results for `O=C(NCc1cc2nc(-c3cccc(N4CC[C@@H](F)C4)n3)ccc2cn1)c1ccc2c(c1)S(=O)(=O)CCOC2` [Compound 222] were, in that order, 12.9 nM, 136 nM and 10.58.
As to `C[C@H]1CN(c2cccc(-c3ccc4cnc(CNC(=O)c5ccc6c(c5)S(=O)(=O)CCOC6)cc4n3)n2)CCO1` [Compound 223], the IC50 in assay [1] is 6.9 nM; in assay [2] it was 49.6 nM. In addition, the “Ratio* (BRG1 IC50 (μM) divided by BRM IC50 (μM))” value in assay [1] was determined as 7.16.
The corresponding values for `O=C(NCc1cc2nc(-c3cccc(N4CC[C@H](F)C4)n3)ccc2cn1)c1ccc2c(c1)S(=O)(=O)CCOC2` [Compound 224] are 25.9 nM, 365 nM and 14.09.
On to `C[C@@H]1CN(c2cccc(-c3ccc4cnc(CNC(=O)c5ccc6c(c5)S(=O)(=O)CCOC6)cc4n3)n2)CCO1` [Compound 225], for which the IC50 is 4.6 nM in assay [1] and 28.7 nM in assay [2]. The “Ratio* (BRG1 IC50 (μM) divided by BRM IC50 (μM))” value in assay [1] came out at 6.29.
As to `O=C(NCc1cc2nc(-c3cccc(N4CCOCC4)n3)ccc2cn1)c1ccc2c(c1)S(=O)(=O)CCOC2` [Compound 226], in assay [1], the IC50 came to 11.1 nM and the “Ratio* (BRG1 IC50 (μM) divided by BRM IC50 (μM))” value is on record as 12.29. For the same molecule, the IC50 in assay [2] was 136 nM.
The corresponding values for `COC1CN(c2cccc(-c3ccc4cnc(CNC(=O)c5ccc6c(c5)S(=O)(=O)CCOC6)cc4n3)n2)C1` [Compound 228] are 20.5 nM, 13.77 and 282 nM.
For `O=C(NCc1cc2nc(-c3cccc4c3OCO4)ccc2cn1)c1ccc2c(c1)S(=O)(=O)CCOC2` [Compound 229], in assay [1], the half-maximal inhibitory concentration (IC50) is 119 nM and the “Ratio* (BRG1 IC50 (μM) divided by BRM IC50 (μM))” value amounted to 12.81. For the same molecule, the IC50 in assay [2] amounted to 1520 nM.
As for `O=C(NCc1cc2nc(-c3cncc(C4CC4)n3)ccc2cn1)c1cnc2c(c1)S(=O)(=O)CCCC2` [Compound 230], in assay [1], the IC50 amounted to 41.6 nM and the “Ratio* (BRG1 IC50 (μM) divided by BRM IC50 (μM))” value turned out to be 9.60. In assay [2], the concentration for half-maximal inhibition (IC50) worked out at 399 nM.
The corresponding values for `CS(=O)(=O)c1cc(C(=O)NCc2cc3nc(-c4cncc(C5CC5)n4)ccc3cn2)ccc1C(F)F` [Compound 231] are 130 nM, 17.98 and 2340 nM.
Regarding `O=C(NCc1cc2nc(-c3ccccc3OC3CC3)ccc2cn1)c1ccc2c(c1)S(=O)(=O)CCOC2` [Compound 232], the IC50 in assay [1] is 58.5 nM; in assay [2], 410 nM. In addition, the “Ratio* (BRG1 IC50 (μM) divided by BRM IC50 (μM))” value in assay [1] came out at 7.00.
The corresponding values for `CN1CCc2c(-c3ccc4cnc(CNC(=O)c5ccc6c(c5)S(=O)(=O)CCOC6)cc4n3)cccc21` [Compound 233] are 77.1 nM, 1080 nM and 14.01.
The corresponding values for `Cn1cnc2c(-c3ccc4cnc(CNC(=O)c5ccc6c(c5)S(=O)(=O)CCOC6)cc4n3)cccc21` [Compound 234] are 188 nM, 1520 nM and 8.09.
For `Cn1nccc1-c1cccc(-c2ccc3cnc(CNC(=O)c4ccc5c(c4)S(=O)(=O)CCOC5)cc3n2)c1` [Compound 235], the IC50 in assay [1] was found to be 154 nM; in assay [2], 1130 nM. For the same molecule, in assay [1], the “Ratio* (BRG1 IC50 (μM) divided by BRM IC50 (μM))” value is 7.32.
As for `O=C(NCc1cc2nc(-c3cncc(C4CC4)n3)ccc2cn1)c1ccc2c(c1)S(=O)(=O)COCC2` [Compound 236], in assay [1], the IC50 was 34 nM and the “Ratio* (BRG1 IC50 (μM) divided by BRM IC50 (μM))” value came to 12.93. Also, the IC50 in assay [2] turned out to be 440 nM.
Turning to `O=C(NCc1cc2nc(-c3cccc(OC(F)(F)F)n3)ccc2cn1)c1ccc2c(c1)S(=O)(=O)CCOC2` [Compound 237], in assay [1], the midpoint of inhibition, the IC50, lay at 22.7 nM and the “Ratio* (BRG1 IC50 (μM) divided by BRM IC50 (μM))” value was 20.63. In addition, the IC50 in assay [2] is 468 nM.
In the case of `COCCS(=O)(=O)c1cc(C(=O)NCc2cc3nc(-c4cncc(C5CC5)n4)ccc3cn2)ccc1Cl` [Compound 238], in assay [1], the IC50 amounted to 261 nM and the “Ratio* (BRG1 IC50 (μM) divided by BRM IC50 (μM))” value was determined as 19.12. Also, the half-inhibitory concentration (IC50) in assay [2] stood at 5000 nM.
The like results for `CCOc1cccc(-c2ccc3cnc(CNC(=O)c4ccc5c(c4)S(=O)(=O)CCOC5)cc3n2)n1` [Compound 239] were, in that order, 20.6 nM, 20.48 and 422 nM.
The like results for `C[C@@H]1CN(c2cccc(-c3ccc4cnc(CNC(=O)c5cc(F)c6c(c5)S(=O)(=O)CCOC6)cc4n3)n2)C[C@H](C)O1` [Compound 240] were, in that order, 6.5 nM, 3.66 and 23.8 nM.
`O=C(NCc1cc2nc(-c3cccc(OC4CC4)n3)ccc2cn1)c1ccc2c(c1)S(=O)(=O)CCOC2` [Compound 241]: in assay [1], the IC50 was 62.3 nM and the “Ratio* (BRG1 IC50 (μM) divided by BRM IC50 (μM))” value was 17.23. Also, the IC50 in assay [2] was 1070 nM.

A word on the IC50: it is the concentration at which inhibition is half-maximal.
